These results are taken from PMC12888861, “Antibacterial activity of enmetazobactam against Acinetobacter spp.: a molecular dissection of mechanism of action and resistance determinants” (Antimicrobial Agents and Chemotherapy, 2025).

Data set [1] concerns the target T1, OXA-23 (Acinetobacter baumannii, UniProt Q9L4P2).
T1 construct: GST (N); made in house; host or cells: Escherichia coli BL21
In words: Jump-dilution dissociation assay (koff, t1/2) with OXA-23. The class given is biochemical. As for the experimental part: (§1) The Michaelis-Menten constant (Km) was determined by fitting the data to the Michaelis-Menten equation, following established protocols ([38]). The kcat (hydrolysis rate constant of the β-lactamase) was obtained by linearization of the kinetic data ([39]). To assess the possible inhibitory capacity of enmetazobactam against the CHDLs of A. baumannii, specific OXA-23 inhibition kinetics assays were performed in a Nanoquant Infinite spectrophotometer (Tecan). […] Also, the dissociation constant (koff), which represents the rate at which the enzyme-inhibitor complex dissociates (i.e., the proportion of the enzyme-inhibitor complex that dissociates per unit of time), was determined through a jump-dilution assay that monitored OXA-23 activity recovery as the enzyme-inhibitor complex dissociated. OXA-23 (1 µM) was preincubated for 30 min at 37°C with excess of inhibitors (50× IC₅₀) to ensure full acyl-enzyme complex formation. Subsequently, the mixture was diluted 1:5,000 to allow gradual complex dissociation. […] Enzymatic activity, reflecting the progressive dissociation of the acyl-enzyme complex, was monitored spectrophotometrically at 490 nm for 8 h. The resulting progress curves were fitted using GraphPad Prism (GraphPad Software, MA, USA) to equation 1 to estimate koff, where V0 is the initial, inhibited enzyme velocity; Vs is the steady-state uninhibited enzyme velocity, and t is time.
(1) P=Vs×t+(V0−Vs)×[1−exp^(−koff × t)]/koff

Another data set relates to OXA-24/40. The note with it: cited from earlier work.
The target in data set [2] is T1, OXA-23. The experiment in a line: OXA-23 inhibition assay (nitrocefin hydrolysis IC50). Format: biochemical. To be noted: OXA-23; nitrocefin hydrolysis; 10 min preincubation at room temperature; read-out: IC50. As for the experimental part:
as §1

Data set [3] concerns [H][C@@]12CC(=O)N1[C@@H](C(=O)[O-])[C@](C)(Cn1cc[n+](C)n1)S2(=O)=O. In words: purified protein, by the assay type. To be noted: other: hydrolysis by OXA-23, 25°C, pH 7.4.
Protocol: All kinetics measurements were performed in triplicate, at 25°C, in 20 mM NaHCO3 and 50 mM Na2HPO4 at pH 7.4.
The test system of data set [4] is carbapenem-resistant CHDL-producing A. baumannii isolates (OXA-23, OXA-24/40, OXA-58). The experiment in a line: Checkerboard synergy assay (FIC index). To be noted: checkerboard colistin x enmetazobactam, alone or in presence of the partner. Format: cell-based, Acinetobacter baumannii. As for the experimental part:
Checkerboard assays were performed to assess synergistic interactions between the cefepime/enmetazobactam combination and sulbactam, as well as between enmetazobactam alone and either sulbactam or colistin. […] The assays were conducted with three multidrug-resistant A. baumannii isolates from the Spanish Multicenter Collection, each producing a different OXA-type carbapenemase: OXA-23, OXA-24/40, or OXA-58. The FIC index was calculated and interpreted as follows: FICindex ≤ 0.5, synergy; FICindex > 0.5–4, no synergy; and FICindex > 4, antagonism ([33], [34]).

T1 sequence (Q9L4P2 18-273): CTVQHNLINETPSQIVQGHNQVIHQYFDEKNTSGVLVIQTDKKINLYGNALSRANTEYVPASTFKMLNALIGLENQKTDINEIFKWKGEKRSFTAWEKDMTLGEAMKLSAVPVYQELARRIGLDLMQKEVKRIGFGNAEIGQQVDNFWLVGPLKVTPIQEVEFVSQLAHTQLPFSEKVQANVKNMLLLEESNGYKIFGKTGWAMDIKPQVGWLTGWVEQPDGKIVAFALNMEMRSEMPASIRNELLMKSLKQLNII

Take `CC1=C[C@@H]2CN(C(=O)N2OS(=O)(=O)O)[C@@H]1C(N)=O` [durlobactam]: the residence time (in general, how long the partners stay bound on average) at OXA-23 [1] (jump dilution) came to 412 ± 4 min. In addition, the off-rate (koff) (as a rule, a measure of how fast the partners let go of each other) on OXA-23 [1] (jump dilution 1:5,000) came out at 2.8e-05 s⁻¹. Also, the IC50 (usually the point on the concentration scale where inhibition reaches its midpoint) was 190 nM in the data set with OXA-24/40 and 170 nM at OXA-23 [2].
As to OXA-23 (Acinetobacter baumannii), in data set [3], the Michaelis-Menten constant (Km) (usually the substrate concentration at which the rate is half of its maximum) was determined as 171.85 ± 55.78 µM; the kcat (commonly the maximal rate divided by the concentration of active sites) worked out at 0.177 ± 0.056 s⁻¹; the kcat/Km (in general, the turnover number divided by the Michaelis constant) came out at 1030 M⁻¹ s⁻¹.
Regarding colistin, the MIC (usually the lowest concentration found to suppress growth) came to 1 mg/L in data set [4] (isolate Ab4 (OXA-23)), 1 mg/L in data set [4] (isolate Ab138 (OXA-58)) and 0.25 mg/L in data set [4] (isolate Ab180 (OXA-24/40)).
